# Patent US8895282B2, “Use of a substance for manufacturing of a medicament for treatment of common cold” (Tanomed AB, priority 2008, dated 2014)
# Where “and” joins values, the source holds several entries; their conditions need not be identical. Equal values may be shown once. Read-outs that look alike come from different tables or passages of the source.
# B1: Catalase: specific enzyme catalyzing the conversion of H2O2 into O2 and H2O; purified from human erythrocytes (protein, UniProt P04040 2-527, looked up)
# Catalase: ADSRDPASDQMQHWKEQRAAQKADVLTTGAGNPVGDKLNVITVGPRGPLLVQDVVFTDEMAHFDRERIPERVVHAKGAGAFGYFEVTHDITKYSKAKVFEHIGKKTPIAVRFSTVAGESGSADTVRDPRGFAVKFYTEDGNWDLVGNNTPIFFIRDPILFPSFIHSQKRNPQTHLKDPDMVWDFWSLRPESLHQVSFLFSDRGIPDGHRHMNGYGSHTFKLVNANGEAVYCKFHYKTDQGIKNLSVEDAARLSQEDPDYGIRDLFNAIATGKYPSWTFYIQVMTFNQAETFPFNPFDLTKVWPHKDYPLIPVGKLVLNRNPVNYFAEVEQIAFDPSNMPPGIEASPDKMLQGRLFAYPDTHRHRLGPNYLHIPVNCPYRARVANYQRDGPMCMQDNQGGAPNYYPNSFGAPEQQPSALEHSIQYSGEVRRFNTANDDNVTQVRAFYVNVLNEEQRKRLCENIAGHLKDAQIFIQKKAVKNFTEVHPDYGSHIQALLDKYNAEKPKNAIHTFVQSGSHLAAREKANL
# Legend:
# Rhinovirus 7 [1] = test system: Rhinovirus 7
# Protocol: (§1) Virus concentration=dil 2. Incubation during 30 min in heater keeping 37° C. After 30 min the effect of the hydrogen peroxide is aborted with the addition of 0.1 ml catalase solution into the vial (=1 kU/ml). • 0.7 ml 5% glucose solution+0.1 ml dil 1 of RV7 (=a7) or RV8 (=a8)+0.1 ml of the hydrogen peroxide solution (=final concentration in the vial=[…]). Incubation and abortion of the hydrogen peroxide effect similar as in a).
# (§2) Altogether 4 vials (Eppendorff): a7, a8, b7 and b8.
# (§3) After the addition of catalase, samples are transferred to a 96-well plate with flat bottom according to table 3.
# Rhinovirus 8 [2] = test system: Rhinovirus 8
# Protocol: as §1, §2, §3
# Rhinovirus 8 [3] = conditions: for Infection of WI 38 cells after 10 days of inoculation: 10 U GO + 5% glucose added after 2 days
# Rhinovirus 7 [4] = conditions: for Day 3 (cytopathic effect of RV 7 on WI 38 cells) / Day 5 (cytopathic effect of RV 7 on WI 38 cells) / Day 7 (cytopathic effect of RV 7 on WI 38 cells): 20 U GO/ml; for Incubation time for inactivation of rhinovirus: glucose oxidase 20 U/ml
# Protocol: Virus: Rhinovirus 7, purchased from ATCC (VR-1117), was used as a representative for the rhinovirus group. In the assays the dilutions 10^−2 and 10^−3 were used. […] 0.3 ml of each dilution was added into the vials.
# Cell culture: Human lung cell fibroblasts (WI 38, ATCC-CCL-75) was used for cytopathic effect detection. 10-fold serial dilutions had been made from the concentrated viral suspension. […] Then the media was changed to RPMI with 2% of fetal calf serum, which was preserved during the assay. The cells were incubated in CO2enriched air at 37° C. During the experiments a cell culture of 17th-18^thpassage was used.
# Catalase: From Sigma-Aldrich™. A solution of 100 000 U/ml was prepared from the original solution of 10^6 U/ml.
# H2O2: a 20% solution was diluted in Phosphate buffered saline (PBS) to a 0.5% and a 0.05% solution. 0.1 ml was added to the vials, which means 0.05% or 0.005% in the vials.
# A solution of 200 U/ml and 600 U/ml was prepared from the original solution of 6000 U/ml.
# In order to evaluate whether the effect of the hydrogen peroxide was a direct effect on the virus itself or a cytoprotective effect, we preincubated the virus with the hydrogen peroxide, before it was transferred to the wells with the cells. The WI 38 cells are also sensitive to hydrogen peroxide, and therefore it was necessary to add catalase before inoculation into the wells. […] This design would also reveal if the inhibitory effect was only a virostatic one, or if it could damage the virions irreversibly.
# In table 1 the content of each of the 10 vials (Eppendorf) is listed. The vials were incubated in a heater keeping a stable temperature of 37° C. 1000 U of catalase was added after 15, 30 and 60 min of incubation. 2×50 μl from each vial was transferred to duplicate cell wells (a 96-well plate).
# Rhinovirus 7 [5] = conditions: for Infection of WI 38 cells after 10 days of inoculation: 10 U GO + 5% glucose added after 2 days
# WI 38 cells = test system: WI 38 cells
# Protocol: as §1, §3
# [6] = 40 U/ml of Glucose Oxidase, high initial inoculate
# [7] = 50 μl a7: RV7 dil 2 preincubated 30 min with 40 U/ml Glucose Oxidase, then catalase
# [8] = 50 μl a8: RV8 dil 2 preincubated 30 min with 40 U/ml Glucose Oxidase, then catalase
# [9] = Glucose Oxidase added into the wells 2 days after the initial incubation
# [10] = RV 7 dil 10^−2, preincubation 15 min
# [11] = RV 7 dil 10^−2, preincubation 30 min
# [12] = RV 7 dil 10^−2, preincubation 60 min
# [13] = RV 7 dil 10^−3, preincubation 15 min
# [14] = RV 7 dil 10^−3, preincubation 30 min
# [15] = RV 7 dil 10^−3, preincubation 60 min
molecule,measurement,setting,value
Glucose oxidase [GO],Inactivation of RV 7,Rhinovirus 7 [1]; [6],able to inactivate
same,Infection of WI 38 cells after 2 days of inoculation,Rhinovirus 7 [1]; [7],0
same,Infection of WI 38 cells after 10 days of inoculation,Rhinovirus 7 [1]; [7],0
same,Inactivation of RV 8,Rhinovirus 8 [2]; [6],able to inactivate
same,Infection of WI 38 cells after 2 days of inoculation,Rhinovirus 8 [2]; [8],0
same,Infection of WI 38 cells after 10 days of inoculation,Rhinovirus 8 [2]; [8],0
same,Infection of WI 38 cells after 10 days of inoculation,"Rhinovirus 8 [3]; well E2, 50 μl RV8 dilution 2",2+
same,Infection of WI 38 cells after 10 days of inoculation,"Rhinovirus 8 [3]; well E4, 50 μl RV8 dilution 4",0
same,Infection of WI 38 cells after 10 days of inoculation,"Rhinovirus 8 [3]; wells D9, C9, 10 μl RV8 dilution 1",2+ and 3+
same,Spread of viral infection to other cells,Rhinovirus 8 [3]; [9],could prevent the spread of viral infection
same,GO concentration having an effect on the Rhinovirus infection,Rhinovirus 7 [4],less than 20 U/ml
same,Day 3 (cytopathic effect of RV 7 on WI 38 cells),Rhinovirus 7 [4]; [10],−
same,Day 5 (cytopathic effect of RV 7 on WI 38 cells),Rhinovirus 7 [4]; [10],−
same,Day 7 (cytopathic effect of RV 7 on WI 38 cells),Rhinovirus 7 [4]; [10],−
same,Day 3 (cytopathic effect of RV 7 on WI 38 cells),Rhinovirus 7 [4]; [11],−
same,Day 5 (cytopathic effect of RV 7 on WI 38 cells),Rhinovirus 7 [4]; [11],−
same,Day 7 (cytopathic effect of RV 7 on WI 38 cells),Rhinovirus 7 [4]; [11],−
same,Day 3 (cytopathic effect of RV 7 on WI 38 cells),Rhinovirus 7 [4]; [12],−
same,Day 5 (cytopathic effect of RV 7 on WI 38 cells),Rhinovirus 7 [4]; [12],−
same,Day 7 (cytopathic effect of RV 7 on WI 38 cells),Rhinovirus 7 [4]; [12],−
same,Day 3 (cytopathic effect of RV 7 on WI 38 cells),Rhinovirus 7 [4]; [13],−
same,Day 5 (cytopathic effect of RV 7 on WI 38 cells),Rhinovirus 7 [4]; [13],−
same,Day 7 (cytopathic effect of RV 7 on WI 38 cells),Rhinovirus 7 [4]; [13],−
same,Day 3 (cytopathic effect of RV 7 on WI 38 cells),Rhinovirus 7 [4]; [14],−
same,Day 5 (cytopathic effect of RV 7 on WI 38 cells),Rhinovirus 7 [4]; [14],−
same,Day 7 (cytopathic effect of RV 7 on WI 38 cells),Rhinovirus 7 [4]; [14],−
same,Day 3 (cytopathic effect of RV 7 on WI 38 cells),Rhinovirus 7 [4]; [15],−
same,Day 5 (cytopathic effect of RV 7 on WI 38 cells),Rhinovirus 7 [4]; [15],−
same,Day 7 (cytopathic effect of RV 7 on WI 38 cells),Rhinovirus 7 [4]; [15],−
same,"Amount of H2O2 produced by Glucose Oxidase, equivalent",Rhinovirus 7 [4]; 20 U/ml of Glucose Oxidase,more than 0.005 % H2O2
same,Hydrogen peroxide concentration corresponding to the effective GO concentration,Rhinovirus 7 [4]; GO less than 20 U/ml,more than 10 mM
same,Reversibility of the inactivation of RV 7,"Rhinovirus 7 [4]; Glucose Oxidase or 0.05% hydrogen peroxide solution, 7 days of incubation, no sign of recovery",irreversible
same,Glucose Oxidase concentration sufficient for complete inactivation of RV 7,Rhinovirus 7 [4]; WI 38 cells,20 U/ml
same,Cytopathic effect in wells where Glucose Oxidase had been incubated with RV 7,"Rhinovirus 7 [4]; after 5 days of incubation, even after only 15 min preincubation and higher RV 7 concentration",no cytopathic effect
same,Incubation time for inactivation of rhinovirus,Rhinovirus 7 [4],≤ 30 min
same,Incubation time for inactivation of rhinovirus,Rhinovirus 7 [4]; listed as glucose oxidase,less than 30 minutes
same,Infection of WI 38 cells after 10 days of inoculation,"Rhinovirus 7 [5]; well E1, 50 μl RV7 dilution 2",2+
same,Infection of WI 38 cells after 10 days of inoculation,"Rhinovirus 7 [5]; well E3, 50 μl RV7 dilution 4",0
same,Infection of WI 38 cells after 10 days of inoculation,"Rhinovirus 7 [5]; wells F9, E9, 10 μl RV7 dilution 1",1+
same,Spread of viral infection to other cells,Rhinovirus 7 [5]; [9],could prevent the spread of viral infection
B1,Effect on WI 38 cells after 2 days,WI 38 cells,0
same,Effect on WI 38 cells after 10 days,WI 38 cells,0
